According to ChEMBL document CHEMBL4376804, “Review of Transient Receptor Potential Canonical (TRPC5) Channel Modulators and Diseases” (J Med Chem, 2019):

What was measured:
[1] = target: T1, Short transient receptor potential channel 3 (Homo sapiens, UniProt Q13507); assay: Inhibition of human TRPC3 expressed in CHO cells assessed as reduction in OAG-induced calcium influx after 10 mins by fluo-4/AM dye based FLIPR assay; format: cell-based
T1 sequence (Q13507 whole entry): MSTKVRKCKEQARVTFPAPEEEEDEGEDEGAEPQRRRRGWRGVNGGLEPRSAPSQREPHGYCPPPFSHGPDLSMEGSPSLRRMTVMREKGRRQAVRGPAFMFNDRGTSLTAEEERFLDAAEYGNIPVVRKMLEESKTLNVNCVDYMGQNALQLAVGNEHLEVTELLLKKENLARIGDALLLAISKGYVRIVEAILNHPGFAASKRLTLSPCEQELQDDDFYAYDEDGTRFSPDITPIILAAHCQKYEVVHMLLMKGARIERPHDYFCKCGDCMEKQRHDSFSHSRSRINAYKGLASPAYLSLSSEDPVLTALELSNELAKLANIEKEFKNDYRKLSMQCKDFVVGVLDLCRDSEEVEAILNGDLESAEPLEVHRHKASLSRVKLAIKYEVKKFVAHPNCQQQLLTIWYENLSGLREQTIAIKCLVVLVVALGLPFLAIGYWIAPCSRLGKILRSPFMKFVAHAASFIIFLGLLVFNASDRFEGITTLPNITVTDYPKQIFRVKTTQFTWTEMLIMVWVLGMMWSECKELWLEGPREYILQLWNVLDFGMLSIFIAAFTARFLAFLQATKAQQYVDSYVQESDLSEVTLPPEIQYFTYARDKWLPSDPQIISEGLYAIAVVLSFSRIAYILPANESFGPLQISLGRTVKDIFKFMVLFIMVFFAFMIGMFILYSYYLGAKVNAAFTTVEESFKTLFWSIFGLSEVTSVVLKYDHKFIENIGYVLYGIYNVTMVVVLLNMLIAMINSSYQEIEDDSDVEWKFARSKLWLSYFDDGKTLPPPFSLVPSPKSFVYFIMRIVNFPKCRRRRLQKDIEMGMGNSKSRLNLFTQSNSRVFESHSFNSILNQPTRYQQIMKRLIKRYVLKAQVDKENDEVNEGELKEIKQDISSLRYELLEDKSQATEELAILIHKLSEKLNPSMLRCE

[2] = target: T2, Short transient receptor potential channel 5 (Mus musculus, UniProt Q9QX29); assay: Inhibition of mouse TRPC5 by FLIPR assay
T2 sequence (Q9QX29 whole entry): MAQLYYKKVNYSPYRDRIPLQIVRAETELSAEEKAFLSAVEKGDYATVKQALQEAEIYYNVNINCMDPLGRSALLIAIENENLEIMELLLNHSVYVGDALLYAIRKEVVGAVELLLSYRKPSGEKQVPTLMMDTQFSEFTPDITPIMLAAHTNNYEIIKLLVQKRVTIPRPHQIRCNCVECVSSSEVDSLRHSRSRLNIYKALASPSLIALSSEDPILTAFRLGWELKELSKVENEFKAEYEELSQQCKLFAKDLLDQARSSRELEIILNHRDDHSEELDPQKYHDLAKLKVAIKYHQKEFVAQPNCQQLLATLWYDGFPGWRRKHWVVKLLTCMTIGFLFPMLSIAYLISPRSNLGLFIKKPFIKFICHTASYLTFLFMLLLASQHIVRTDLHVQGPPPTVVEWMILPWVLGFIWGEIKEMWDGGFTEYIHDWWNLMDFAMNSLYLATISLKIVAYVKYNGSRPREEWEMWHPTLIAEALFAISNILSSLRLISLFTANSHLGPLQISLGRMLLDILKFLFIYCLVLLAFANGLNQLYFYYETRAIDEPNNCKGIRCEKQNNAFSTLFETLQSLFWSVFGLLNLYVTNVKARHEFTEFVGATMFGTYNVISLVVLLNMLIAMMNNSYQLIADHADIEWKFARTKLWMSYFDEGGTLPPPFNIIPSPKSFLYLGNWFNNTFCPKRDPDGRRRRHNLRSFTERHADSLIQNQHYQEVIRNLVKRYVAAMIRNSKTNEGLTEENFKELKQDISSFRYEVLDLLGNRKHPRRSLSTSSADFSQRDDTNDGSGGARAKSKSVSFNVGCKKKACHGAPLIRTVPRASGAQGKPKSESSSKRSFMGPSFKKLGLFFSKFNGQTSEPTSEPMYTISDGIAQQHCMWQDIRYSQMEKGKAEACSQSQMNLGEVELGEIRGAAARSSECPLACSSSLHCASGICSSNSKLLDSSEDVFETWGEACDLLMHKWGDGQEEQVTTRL

Mus musculus [3] = species: Mus musculus; assay: Selectivity ratio of IC50 for YFP-tagged mouse TRPC4 beta expressed in thapsigargin treated HEK293 cells co-expressing M3 receptor to IC50 for mouse TRPC5 expressed in thapsigargin treated HEK293/TREx cells; format: cell-based
[4] = target: T1, Short transient receptor potential channel 3; assay: Inhibition of YFP-tagged human TRPC3 expressed in thapsigargin treated HEK293 cells assessed as reduction in amix-induced calcium level by fluo-4 dye based fluorescence assay; format: cell-based
[5] = target: Short transient receptor potential channel 7 (Mus musculus, UniProt Q9WVC5); assay: Inhibition of YFP-tagged mouse TRPC7 expressed in thapsigargin treated HEK293 cells assessed as reduction in amix-induced calcium level by fluo-4 dye based fluorescence assay; format: cell-based
Sequence of Short transient receptor potential channel 7 (Q9WVC5 whole entry): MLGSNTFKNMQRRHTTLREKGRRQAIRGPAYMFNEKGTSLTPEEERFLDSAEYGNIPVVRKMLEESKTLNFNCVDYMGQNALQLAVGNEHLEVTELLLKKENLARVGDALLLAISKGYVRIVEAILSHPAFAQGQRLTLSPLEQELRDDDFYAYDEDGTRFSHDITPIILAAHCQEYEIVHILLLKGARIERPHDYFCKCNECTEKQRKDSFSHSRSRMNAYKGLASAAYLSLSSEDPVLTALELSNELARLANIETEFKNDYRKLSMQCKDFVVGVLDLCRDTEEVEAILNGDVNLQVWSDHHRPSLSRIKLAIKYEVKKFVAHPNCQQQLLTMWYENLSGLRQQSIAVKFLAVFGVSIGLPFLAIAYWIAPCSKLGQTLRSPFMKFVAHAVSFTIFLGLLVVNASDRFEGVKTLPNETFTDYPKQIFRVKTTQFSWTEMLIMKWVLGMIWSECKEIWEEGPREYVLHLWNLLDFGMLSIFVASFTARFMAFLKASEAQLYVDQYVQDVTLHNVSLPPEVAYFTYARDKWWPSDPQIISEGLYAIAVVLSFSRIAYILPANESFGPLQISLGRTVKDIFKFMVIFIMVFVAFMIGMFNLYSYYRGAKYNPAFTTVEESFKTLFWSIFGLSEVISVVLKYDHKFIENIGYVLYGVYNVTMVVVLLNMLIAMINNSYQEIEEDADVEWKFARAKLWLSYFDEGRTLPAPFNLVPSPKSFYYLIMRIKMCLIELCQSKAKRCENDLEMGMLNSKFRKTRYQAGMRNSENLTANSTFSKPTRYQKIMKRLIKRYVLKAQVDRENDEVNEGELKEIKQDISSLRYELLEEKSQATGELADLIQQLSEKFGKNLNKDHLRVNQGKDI

[6] = target: Transient receptor potential cation channel subfamily V member 4 (Mus musculus, UniProt Q9EPK8); assay: Inhibition of YFP-tagged mouse TRPV4 expressed in HEK293 cells assessed as reduction in calcium level by fluo-4 dye based fluorescence assay; format: cell-based
Sequence of Transient receptor potential cation channel subfamily V member 4 (Q9EPK8 whole entry): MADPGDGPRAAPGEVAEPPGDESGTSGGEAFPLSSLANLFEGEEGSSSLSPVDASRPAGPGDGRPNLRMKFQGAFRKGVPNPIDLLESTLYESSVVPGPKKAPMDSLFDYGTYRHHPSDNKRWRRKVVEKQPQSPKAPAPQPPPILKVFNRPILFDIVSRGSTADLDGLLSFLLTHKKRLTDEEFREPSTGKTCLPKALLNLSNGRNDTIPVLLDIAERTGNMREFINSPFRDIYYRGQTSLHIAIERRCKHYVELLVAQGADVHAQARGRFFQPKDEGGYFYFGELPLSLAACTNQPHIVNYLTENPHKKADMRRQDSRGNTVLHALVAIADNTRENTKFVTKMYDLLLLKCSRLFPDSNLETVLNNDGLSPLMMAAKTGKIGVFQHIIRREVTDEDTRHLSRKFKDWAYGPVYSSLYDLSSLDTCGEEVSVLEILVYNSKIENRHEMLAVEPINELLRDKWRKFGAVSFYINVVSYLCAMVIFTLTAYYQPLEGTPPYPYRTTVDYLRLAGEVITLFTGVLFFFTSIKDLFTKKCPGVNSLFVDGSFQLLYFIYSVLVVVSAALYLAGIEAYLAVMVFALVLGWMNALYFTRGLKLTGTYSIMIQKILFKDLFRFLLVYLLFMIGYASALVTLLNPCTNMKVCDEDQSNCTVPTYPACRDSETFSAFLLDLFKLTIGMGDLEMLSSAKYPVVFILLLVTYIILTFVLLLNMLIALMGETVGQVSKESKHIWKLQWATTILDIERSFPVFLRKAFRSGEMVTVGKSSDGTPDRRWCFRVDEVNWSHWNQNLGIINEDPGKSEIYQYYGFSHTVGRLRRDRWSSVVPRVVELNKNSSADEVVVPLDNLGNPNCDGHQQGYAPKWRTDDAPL

[7] = target: Heat sensitive channel TRPV3 (Rattus norvegicus, UniProt Q4QYD9); assay: Inhibition of YFP-tagged rat TRPV3 expressed in HEK293 cells assessed as reduction in calcium level by fluo-4 dye based fluorescence assay; format: cell-based
Sequence of Heat sensitive channel TRPV3 (Q4QYD9 whole entry): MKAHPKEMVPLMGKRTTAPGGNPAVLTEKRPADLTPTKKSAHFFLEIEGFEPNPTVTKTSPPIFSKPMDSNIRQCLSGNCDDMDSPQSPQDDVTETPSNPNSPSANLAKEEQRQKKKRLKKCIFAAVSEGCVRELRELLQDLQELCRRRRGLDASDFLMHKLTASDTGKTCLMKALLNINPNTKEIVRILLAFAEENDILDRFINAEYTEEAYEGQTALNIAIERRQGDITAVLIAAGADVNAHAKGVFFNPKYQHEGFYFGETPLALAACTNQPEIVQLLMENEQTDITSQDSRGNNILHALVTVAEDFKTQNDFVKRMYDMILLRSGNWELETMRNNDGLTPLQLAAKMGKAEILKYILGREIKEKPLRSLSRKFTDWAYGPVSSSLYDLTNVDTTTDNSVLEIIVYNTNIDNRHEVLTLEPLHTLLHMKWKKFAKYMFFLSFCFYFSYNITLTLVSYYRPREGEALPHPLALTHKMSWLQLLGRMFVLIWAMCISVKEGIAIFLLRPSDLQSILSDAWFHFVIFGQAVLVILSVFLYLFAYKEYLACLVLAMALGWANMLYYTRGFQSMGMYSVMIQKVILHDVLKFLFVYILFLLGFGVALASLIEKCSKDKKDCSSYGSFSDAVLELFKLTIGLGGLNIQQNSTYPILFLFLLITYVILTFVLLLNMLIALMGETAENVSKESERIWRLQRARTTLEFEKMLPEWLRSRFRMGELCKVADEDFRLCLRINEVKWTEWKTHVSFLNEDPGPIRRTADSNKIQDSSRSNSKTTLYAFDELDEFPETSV

Mus musculus [8] = species: Mus musculus; assay: Selectivity ratio of IC50 for YFP-tagged mouse TRPC7 expressed in thapsigargin treated HEK293 cells to IC50 for mouse TRPC5 expressed in thapsigargin treated HEK293/TREx cells; format: cell-based
[9] = target: T2, Short transient receptor potential channel 5; assay: Inhibition of mouse TRPC5 expressed in HEK293 cells co-expressing mu-opioid receptor assessed as reduction in DAMGO-induced membrane potential by FMP-2 dye based assay; format: cell-based

N#Cc1ccc(O[C@@H]2c3ccccc3C[C@H]2N2CCC[C@@H](N)C2)c(Cl)c1
IC50 [1]: 0.282 µM
IC50 [2]: > 10 µM

Clc1ccc(Cn2c(CN3CCCC3)nc3ccccc32)cc1 [CLEMIZOLE]
Ratio IC50 (Mus musculus [3]): 6
IC50 [4]: 9.1 µM
IC50 [5]: 26.5 µM
IC50 [6]: > 20 µM
IC50 [7]: > 20 µM
Ratio IC50 (Mus musculus [8]): 10

c1ccc2[nH]c(N3CCCC3)nc2c1
IC50 [9]: 8 µM

CC1CCCCN1c1nc2ccccc2[nH]1 (centres undefined)
IC50 [9]: 3.5 µM

c1ccc2[nH]c(NC34CC5CC(CC(C5)C3)C4)nc2c1
IC50 [9]: 12.4 µM

CC1CCN(c2nc3ccccc3[nH]2)CC1
IC50 [9]: 6.6 µM

c1ccc2[nH]c(N3CCCCC3)nc2c1
IC50 [9]: 11.1 µM

CC1CCN(c2nc3cc(Cl)ccc3[nH]2)CC1
IC50 [9]: 3.1 µM
